Assay results published in patent US10357546B2, “Acceleration of diabetic wound healing” (University of Notre Dame du Lac, priority 2014, dated 2019).

Legend:
[1] = target: MMP-9 (Homo sapiens (Human), UniProt P14780); assay: Enzyme inhibition, MMP-9 catalytic domain; assay type: biochemical; conditions: for residence time: calculated as 1/koff
Experimental: (§1) Inhibitor stock solutions (10 mM) were prepared freshly in DMSO before enzyme inhibition assays. […] Enzyme inhibition studies were carried out using a Cary Eclipse fluorescence spectrophotometer (Varian, Walnut Creek, Calif., USA).

[2] = target: MMP-8 (Homo sapiens (Human), UniProt P22894); assay: Enzyme inhibition, MMP-8 catalytic domain; assay type: biochemical
Sequence of MMP-8 (P22894 100-262): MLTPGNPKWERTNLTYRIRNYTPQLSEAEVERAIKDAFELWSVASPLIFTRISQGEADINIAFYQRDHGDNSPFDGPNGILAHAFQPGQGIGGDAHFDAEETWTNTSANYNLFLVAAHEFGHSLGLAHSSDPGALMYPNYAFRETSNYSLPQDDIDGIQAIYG
Experimental: as §1

Sequence of MMP-9 (P14780 107-444): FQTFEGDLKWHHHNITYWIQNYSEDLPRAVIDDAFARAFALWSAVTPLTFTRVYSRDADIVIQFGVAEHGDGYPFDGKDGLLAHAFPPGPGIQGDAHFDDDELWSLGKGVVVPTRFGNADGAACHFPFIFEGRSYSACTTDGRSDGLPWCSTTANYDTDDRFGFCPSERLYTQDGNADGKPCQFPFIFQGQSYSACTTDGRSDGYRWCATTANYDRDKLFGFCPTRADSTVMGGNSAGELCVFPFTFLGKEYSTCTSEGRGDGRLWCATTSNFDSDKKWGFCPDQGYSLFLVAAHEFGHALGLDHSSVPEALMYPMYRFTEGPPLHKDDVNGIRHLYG

## Nc1ccc(Oc2ccc(S(=O)(=O)CC3CS3)cc2)cc1 (stereo not shown) [ND-322]
[1]
  Inhibition type, MMP-9: slow-binding

## O=S(=O)(CC1CS1)c1ccc(Oc2ccccc2)cc1 (stereo not shown) [SB-3CT, reference compound]
[1]
  Inhibition type, MMP-9: slow-binding

## O=S(=O)(CC1CS1)c1ccc(Oc2ccc(O)cc2)cc1 (stereo not shown) [p-OH SB-3CT]
[2]
  Inhibition type, MMP-8: non-competitive
  Ki: 2.6 µM
[1]
  Inhibition type, MMP-9: slow-binding
  Ki: 0.16 µM
  residence time: 24.5 min

## COC(=O)Nc1ccc(Oc2ccc(S(=O)(=O)CC3CS3)cc2)cc1 (stereo not shown) [ND-380]
[2]
  Inhibition type, MMP-8: non-competitive
  Ki: 13 µM
[1]
  Inhibition type, MMP-9: slow-binding
  residence time: 19.6 min

## CS(=O)(=O)Oc1ccc(Oc2ccc(S(=O)(=O)CC3CS3)cc2)cc1 (stereo not shown) [JNMS-38]
[2]
  Inhibition type, MMP-8: linear competitive
[1]
  Inhibition type, MMP-9: slow-binding
